Assay type in all cases: biochemical
In one experiment the target is PKR(R510Q) (Homo sapiens, UniProt P30613, R510Q). In words: Luminescence Assay Protocol (Kinase Glo Plus), PKR(R510Q/without FBP). The conditions noted are these: PKRR510Q, without FBP; for AC50: gmean, read-out: D - AC50 LUM KGP woFBP AC50 μM gmean; for activation at 1.54 µM: compound 1.54 μM, read-out: F - AC50 LUM KGP woFBP % Fold @ 1.54 μM mean; for Emax: highest % fold increase at any concentration, read-out: E - AC50 LUM KGP woFBP MAX % FOLD mean. As for the experimental part: (§1) Example 47: PKR(Wt/without FBP), PKR(G332S/with FBP), PKR(R510Q/without FBP)
Sequence of PKR(R510Q) (P30613 whole entry R510Q): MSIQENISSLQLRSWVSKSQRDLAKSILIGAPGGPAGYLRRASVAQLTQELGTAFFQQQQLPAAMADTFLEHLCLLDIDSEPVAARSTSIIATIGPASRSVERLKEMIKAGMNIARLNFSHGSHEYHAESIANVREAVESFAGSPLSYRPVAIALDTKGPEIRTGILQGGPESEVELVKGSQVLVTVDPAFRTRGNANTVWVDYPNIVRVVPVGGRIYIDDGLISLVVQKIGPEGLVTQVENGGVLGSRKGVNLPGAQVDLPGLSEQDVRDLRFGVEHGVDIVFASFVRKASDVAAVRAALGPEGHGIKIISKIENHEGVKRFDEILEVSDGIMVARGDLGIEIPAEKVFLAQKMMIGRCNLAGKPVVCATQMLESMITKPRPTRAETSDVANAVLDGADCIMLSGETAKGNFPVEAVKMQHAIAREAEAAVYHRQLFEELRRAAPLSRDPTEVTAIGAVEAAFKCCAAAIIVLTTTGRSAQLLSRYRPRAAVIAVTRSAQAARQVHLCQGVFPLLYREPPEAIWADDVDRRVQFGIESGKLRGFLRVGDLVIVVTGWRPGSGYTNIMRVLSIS
(§2) The phosphorylation of Adenosine-5′-diphosphate (ADP) by various mutants of PKR was determined by the Kinase Glo Plus Assay (Promega) in the presence or absence of FBP [D-Fructose-1,6-diphosphate; BOC Sciences, CAS: 81028-91-3] as follows. Unless otherwise indicated, all reagents were purchased from Sigma-Aldrich. All reagents were prepared in buffer containing 50 mM Tris-HCl, 100 mM KCl, 5 mM MgCl2, and 0.01% Triton X100, 0.03% BSA, and 1 mM DTT. Enzyme and PEP [Phospho(enol) pyruvic acid] were added at 2× to all wells of an assay-ready plate containing serial dilutions of test compounds or DMSO vehicle. Final enzyme concentrations for PKR(wt), PKR(R510Q), and PKR(G332S) were 0.8 nM, 0.8 nM, and 10 nM respectively. Final PEP concentration was 100 μM. The Enzyme/PEP mixture was incubated with compounds for 30 minutes at RT before the assay was initiated with the addition of 2×ADP [Adenosine-5′-diphosphate] and KinaseGloPlus. Final concentration of ADP was 100 μM. […] For assays containing FBP, that reagent is added at 30 μM upon reaction initiation. Reactions were allowed to progress for 45 minutes at RT until luminescence was recorded by the BMG PHERAstar FS Multilabel Reader. All compounds were tested in triplicate at concentrations ranging from 42.5 μM to 2.2 nM in 0.83% DMSO.
(§3) Luminescence values were converted to % Fold increase by normalizing to the average of the DMSO control and multiplying by 100. Max, min, slope and AC50 were determined by the standard four parameter fit algorithm of ActivityBase XE Runner. Compounds were evaluated with three parameters—AC50, MAX % Fold, and % Fold@1.54 μM (FIG. 1). The AC50 value for a compound is the concentration […] corresponding to the midway between the maximum and minimum values of the four parameter logistic curve fit (i.e., at which the % fold increase along the four parameter logistic curve fit is halfway between MAX % Fold and MIN % Fold (% Fold Midpoint)), MAX % Fold is the highest fold increase observed at any concentration of compound, and % Fold@1.54 μM is the fold increase at a compound concentration of 1.54 μM. The parameter % Fold@1.54 μM was selected to capture elements of both the AC50 and MAX % Fold and to provide a ranking based on both potency and effect. The compound concentration of 1.54 μM was chosen as one that can optimally differentiate the set of compounds based on the range of activities observed.
(§4) As set forth in Tables 6 and 7 below, AC50 values (columns A, D, G) are defined as follows: ≤0.1 μM (+++); >0.1 μM and ≤1.0 μM (++); >1.0 μM and ≤40 μM (+); >40 μM (0). Max % FOLD values (columns B, E, H) are defined as follows: ≤75% (+); >75% and ≤250% (++); >250% and ≤500% (+++). % Fold@1.54 μM values (columns C, F, I) are defined as follows: ≤75% (+); >75% and ≤250% (++); >250% and ≤500% (+++).

The target in a further experiment is PKR(G332S) (Homo sapiens, UniProt P30613, G332S). As to the kind of experiment: Luminescence Assay Protocol (Kinase Glo Plus), PKR(G332S/with FBP). The conditions noted are these: PKRG332S, with FBP; for AC50: gmean, read-out: A - AC50 LUM KGP FBP AC50 μM gmean; for activation at 1.54 µM: compound 1.54 μM, read-out: C - AC50 LUM KGP FBP % Fold @ 1.54 μM mean; for Emax: highest % fold increase at any concentration, read-out: B - AC50 LUM KGP FBP MAX % FOLD mean. Here is the method: as §1, §2, §3, §4
Sequence of PKR(G332S) (P30613 whole entry G332S): as the sequence (P30613 whole entry R510Q) above, with G332S, Q510R counted along it
For orientation: Kinase-Glo measures the ATP left after a reaction by luminescence.

For the next experiment, the target named is PKR(wt) (Homo sapiens, UniProt P30613). In words: Luminescence Assay Protocol (Kinase Glo Plus), PKR(Wt/without FBP). The conditions noted are these: without FBP; for activation at 1.54 µM: compound 1.54 μM, read-out: I - AC50 LUM KGP woFBP % Fold @ 1.54 μM mean; for AC50: gmean, read-out: G - AC50 LUM KGP woFBP AC50 μM gmean; for Emax: highest % fold increase at any concentration, read-out: H - AC50 LUM KGP woFBP MAX % FOLD mean. The method in brief:
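Enzyme (wt 0.8 nM, R510Q 0.8 nM, G332S 10 nM) was preincubated 30 min at RT with compound and 100 μM PEP in Tris/KCl/MgCl2 buffer, then started with 100 μM ADP, plus 30 μM FBP for G332S. Luminescence was read after 45 min at RT. AC50 came from a four-parameter fit of % fold over DMSO across 42.5 μM–2.2 nM.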

Sequence of PKR(wt) (P30613 whole entry): as the sequence (P30613 whole entry R510Q) above, with Q510R counted along it

For `CC(C)(CO)C(=O)N1CC2=C(C1)CN(S(=O)(=O)c1ccc(OC(F)F)cc1)C2` [Example 7, 1-(5-((4-(difluoromethoxy)phenyl)sulfonyl)-3,4,5,6-tetrahydropyrrolo[3,4-c]pyrrol-2(1H)-yl)-3-hydroxy-2,2-dimethylpropan-1-one], the AC50 at PKR(R510Q) is 0.1 to 1 µM. Further, the AC50 at PKR(G332S) is no more than 0.1 µM. Moreover, at PKR(wt), the activation at 1.54 µM was 75 to 250%, the AC50 fell in the range of 0.1 to 1 µM and the Emax lay within 75 to 250%.
In the case of `O=C([C@@H]1CCOC1)N1CC2=C(C1)CN(S(=O)(=O)c1ccc(OC(F)F)cc1)C2` [Example 14, (R)-(5-((4-(difluoromethoxy)phenyl)sulfonyl)-3,4,5,6-tetrahydropyrrolo[3,4-c]pyrrol-2(1H)-yl)(tetrahydrofuran-3-yl)methanone], at PKR(R510Q), the activation at 1.54 µM is 75 to 250%, the AC50 was in the range of 1 to 40 µM and the Emax lay in the range of 250 to 500%. For the same compound, on PKR(G332S), the activation at 1.54 µM was in the range of 75 to 250%, the AC50 is 0.1 to 1 µM and the Emax lay within 75 to 250%. Besides, on PKR(wt), the activation at 1.54 µM was 250 to 500%, the AC50 lay in the range of 0.1 to 1 µM and the Emax was 250 to 500%.
Take `O=C(C1CCCOC1)N1CC2=C(C1)CN(S(=O)(=O)c1ccc3ncsc3c1)C2` (centres unmarked) [Example 15, (5-(benzo[d]thiazol-6-ylsulfonyl)-3,4,5,6-tetrahydropyrrolo[3,4-c]pyrrol-2(1H)-yl)(tetrahydro-2H-pyran-3-yl)methanone]: the activation at 1.54 µM on PKR(R510Q), on PKR(G332S) and at PKR(wt) was 75 to 250% throughout. Moreover, the AC50 on PKR(R510Q) was 1 to 40 µM; on PKR(G332S), greater than 40 µM; at PKR(wt), 0.1 to 1 µM. The figures for the Emax at PKR(R510Q), on PKR(G332S) and on PKR(wt) were 250 to 500%, 75 to 250% and 75 to 250%, respectively.
In the case of `O=C([C@H]1CCOC1)N1CC2=C(C1)CN(S(=O)(=O)c1ccc(OC(F)F)cc1)C2` [Example 16, (S)-(5-((4-(difluoromethoxy)phenyl)sulfonyl)-3,4,5,6-tetrahydropyrrolo[3,4-c]pyrrol-2(1H)-yl)(tetrahydrofuran-3-yl)methanone], the activation at 1.54 µM at PKR(R510Q), on PKR(G332S) and at PKR(wt) was 75 to 250% each time. Also, the AC50 was 1 to 40 µM at PKR(R510Q), 0.1 to 1 µM on PKR(G332S) and 0.1 to 1 µM at PKR(wt). The Emax at PKR(R510Q) lay in the range of 250 to 500%; on PKR(G332S) it was 75 to 250%; on PKR(wt) it was 250 to 500%.
Consider `CC(C)(CO)C(=O)N1CC2=C(C1)CN(S(=O)(=O)c1ccc3ncsc3c1)C2` [Example 19, 1-(5-(benzo[d]thiazol-6-ylsulfonyl)-3,4,5,6-tetrahydropyrrolo[3,4-c]pyrrol-2(1H)-yl)-3-hydroxy-2,2-dimethylpropan-1-one], for which, on PKR(R510Q), the activation at 1.54 µM was in the range of 75 to 250%, the AC50 lay in the range of 0.1 to 1 µM and the Emax lay in the range of 250 to 500%. In addition, at PKR(G332S), the activation at 1.54 µM lay within 75 to 250%, the AC50 is greater than 40 µM and the Emax fell in the range of 75 to 250%. Moreover, at PKR(wt), the activation at 1.54 µM lay within 75 to 250%, the AC50 fell in the range of 0.1 to 1 µM and the Emax fell in the range of 75 to 250%.
Regarding `O=C([C@@H]1CCOC1)N1CC2=C(C1)CN(S(=O)(=O)c1ccc3ncsc3c1)C2` [Example 20, (R)-(5-(benzo[d]thiazol-6-ylsulfonyl)-3,4,5,6-tetrahydropyrrolo[3,4-c]pyrrol-2(1H)-yl)(tetrahydrofuran-3-yl)methanone], at PKR(R510Q), the activation at 1.54 µM was in the range of 75 to 250%, the AC50 lay within 1 to 40 µM and the Emax lay within 250 to 500%. At PKR(G332S), the activation at 1.54 µM is 75 to 250%, the AC50 lay within 0.1 to 1 µM and the Emax is 75 to 250%. Also, at PKR(wt), the activation at 1.54 µM was 75 to 250%, the AC50 was 0.1 to 1 µM and the Emax lay within 250 to 500%.

In general, AC50 refers to the concentration at which the activity in the assay is half-maximal.

The values are drawn from patent US11649242B2, “Pyrrolopyrrole compositions as pyruvate kinase (PKR) activators” (FORMA Therapeutics, Inc., priority 2017, dated 2023).
